The values below come from patent US20120172385A1, “ORTHO SUBSTITUTED PYRIMIDINE COMPOUNDS AS JAK INHIBITORS” (priority 2009, published 2012).

One assay deals with organ transplantation. The settings on record: Changelian et al., 2003; cited from earlier work.
The target in the next assay is T1, JAK2 (Homo sapiens, UniProt O60674).
T1 construct: endogenous in cells; host or cells: Molt4 (ATCC CRL-1582) and Ramos (ATCC CRL-1596) cell lysate, mixed 1:2
Description: Kinobeads assay, JAK2 (dot blot detection). The settings on record: mixed Molt4/Ramos lysate. The assay is classed as binding. How it is done:
(§1) The compounds of the present invention as described in the previous examples were tested in a Kinobeads™ assay as described for ZAP-70 (WO-A 2007/137867). Briefly, test compounds (at various concentrations) and the affinity matrix with the immobilized aminopyrido-pyrimidine ligand 24 were added to cell lysate aliquots and allowed to bind to the proteins in the lysate sample. After the incubation time the beads with captured proteins were separated from the lysate. Bound proteins were then eluted and the presence of JAK2 and JAK3 was detected and quantified using specific antibodies in a dot blot procedure and the Odyssey infrared detection system. Dose response curves for individual kinases were generated and IC50 values calculated. Kinobeads™ assays for ZAP-70 (WO-A 2007/137867) and for kinase selectivity profiling (WO-A 2006/134056) have been previously described.
(§2) The affinity matrix was washed two times with 15 mL of 1×DP buffer containing 0.2% NP40 (IGEPAL® CA-630, Sigma, #I3021) and then resuspended in 1×DP buffer containing 0.2% NP40 (3% beads slurry).
(§3) 5×DP buffer: 250 mM Tris-HCl pH 7.4, 25% Glycerol, 7.5 mM MgCl2, 750 mM NaCl, 5 mM Na3VO4; filter the 5×DP buffer through a 0.22 μm filter and store in aliquots at −80° C. The 5×DP buffer is diluted with H2O to 1×DP buffer containing 1 mM DTT and 25 mM NaF.
(§4) Stock solutions of test compounds were prepared in DMSO. In a 96 well plate 30 μL solution of diluted test compounds at 5 mM in DMSO were prepared. Starting with this solution a 1:3 dilution series (9 steps) was prepared. For control experiments (no test compound) a buffer containing 2% DMSO was used.
(§5) Molt4 cells (ATCC catalogue number CRL-1582) and Ramos cells (ATCC catalogue number CRL-1596) were grown in 1 L Spinner flasks (Integra Biosciences, #182101) in suspension in RPMI 1640 medium (Invitrogen, #21875-034) supplemented with 10% Fetal Bovine Serum (Invitrogen) at a density between 0.15×10^6 and 1.2×10^6 cells/mL. Cells were harvested by centrifugation, washed once with 1×PBS buffer (Invitrogen, #14190-094) and cell pellets were frozen in liquid nitrogen and subsequently stored at −80° C. Cells were homogenized in a Potter S homogenizer in lysis buffer: 50 mM Tris-HCl, 0.8% NP40, 5% glycerol, 150 mM NaCl, 1.5 mM MgCl2, 25 mM NaF, 1 mM sodium vanadate, 1 mM DTT, pH 7.5. One complete EDTA-free tablet (protease inhibitor cocktail, Roche Diagnostics, 1873580) per 25 mL buffer was added. The material was dounced 10 times using a mechanized POTTER S, transferred to 50 mL falcon tubes, incubated for 30 minutes on ice and spun down for 10 minutes at 20,000 g at 4° C. (10,000 rpm in Sorvall SLA600, precooled). The supernatant was transferred to an ultracentrifuge (UZ)-polycarbonate tube (Beckmann, 355654) and spun for 1 hour at 100.000 g at 4° C. (33.500 rpm in Ti50.2, precooled). The supernatant was transferred again to a fresh 50 mL falcon tube, the protein concentration was determined by a Bradford assay (BioRad) and samples containing 50 mg of protein per aliquot were prepared. The samples were immediately used for experiments or frozen in liquid nitrogen and stored frozen at −80° C.
(§6) Cell lysate (approximately 50 mg protein per plate) was thawed in a water bath at room temperature and then stored on ice. To the thawed cell lysate 1×DP 0.8% NP40 buffer containing protease inhibitors (1 tablet for 25 mL buffer; EDTA-free protease inhibitor cocktail; Roche Diagnostics 1873580) was added in order to reach a final protein concentration of 10 mg/mL total protein. The diluted cell lysate was stored on ice. Mixed Molt4/Ramos lysate was prepared by combining one volume of Molt4 lysate and two volumes of Ramos lysate (ratio 1:2).
(§7) To a 96 well filter plate (Multiscreen HTS, BV Filter Plates, Millipore #MSBVN1250) were added per well: 100 μL affinity matrix (3% beads slurry), 3 μL of compound solution, and 50 μL of diluted lysate. […]

The target of a further assay is T2, JAK3 (Homo sapiens, UniProt P52333).
T2 construct: endogenous in cells; host or cells: Molt4 (ATCC CRL-1582) and Ramos (ATCC CRL-1596) cell lysate, mixed 1:2
T2 sequence (P52333 1-1124): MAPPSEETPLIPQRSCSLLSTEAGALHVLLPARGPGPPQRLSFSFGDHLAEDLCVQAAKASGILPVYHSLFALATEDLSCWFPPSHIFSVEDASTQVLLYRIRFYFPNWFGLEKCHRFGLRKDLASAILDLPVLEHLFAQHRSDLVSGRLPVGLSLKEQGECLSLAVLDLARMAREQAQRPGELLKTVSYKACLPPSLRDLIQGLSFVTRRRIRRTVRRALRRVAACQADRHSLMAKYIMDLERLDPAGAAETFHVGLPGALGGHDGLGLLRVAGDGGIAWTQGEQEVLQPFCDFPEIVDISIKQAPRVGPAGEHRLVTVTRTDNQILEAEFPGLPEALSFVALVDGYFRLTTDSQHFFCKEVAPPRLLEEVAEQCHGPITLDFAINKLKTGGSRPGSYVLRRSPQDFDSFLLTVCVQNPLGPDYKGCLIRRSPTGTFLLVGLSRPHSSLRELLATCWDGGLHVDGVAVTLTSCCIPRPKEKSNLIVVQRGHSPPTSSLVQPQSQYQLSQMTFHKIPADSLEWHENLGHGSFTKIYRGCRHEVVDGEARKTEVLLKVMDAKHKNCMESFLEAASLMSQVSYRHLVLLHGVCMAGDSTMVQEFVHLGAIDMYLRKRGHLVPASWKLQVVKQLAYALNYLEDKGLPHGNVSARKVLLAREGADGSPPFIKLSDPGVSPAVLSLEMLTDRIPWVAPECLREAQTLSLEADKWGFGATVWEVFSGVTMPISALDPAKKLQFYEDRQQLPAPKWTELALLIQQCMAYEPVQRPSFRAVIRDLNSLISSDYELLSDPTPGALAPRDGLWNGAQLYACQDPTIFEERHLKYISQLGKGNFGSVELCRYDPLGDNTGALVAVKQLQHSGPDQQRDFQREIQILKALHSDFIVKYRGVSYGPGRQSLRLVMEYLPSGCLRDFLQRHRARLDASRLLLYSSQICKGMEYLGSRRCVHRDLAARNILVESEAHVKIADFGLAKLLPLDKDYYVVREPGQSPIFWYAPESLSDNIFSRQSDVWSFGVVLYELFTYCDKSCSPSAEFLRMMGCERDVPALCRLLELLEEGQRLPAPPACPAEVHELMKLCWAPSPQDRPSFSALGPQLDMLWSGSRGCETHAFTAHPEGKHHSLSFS
Description: Kinobeads assay, JAK3 (dot blot detection). Type of assay: binding. The note with it: mixed Molt4/Ramos lysate. How it is done: as §1, §2, §3, §4, §5, §6, §7

Assay [1] has as its system spontaneous autoimmune diabetes. The settings on record: NOD mouse model of type I diabetes; cited from earlier work.
The next assay deals with GVHD. The settings on record: reviewed in Cetkovic-Cvrlje and Ucken, 2004; cited from earlier work.

T1 sequence (O60674 whole entry): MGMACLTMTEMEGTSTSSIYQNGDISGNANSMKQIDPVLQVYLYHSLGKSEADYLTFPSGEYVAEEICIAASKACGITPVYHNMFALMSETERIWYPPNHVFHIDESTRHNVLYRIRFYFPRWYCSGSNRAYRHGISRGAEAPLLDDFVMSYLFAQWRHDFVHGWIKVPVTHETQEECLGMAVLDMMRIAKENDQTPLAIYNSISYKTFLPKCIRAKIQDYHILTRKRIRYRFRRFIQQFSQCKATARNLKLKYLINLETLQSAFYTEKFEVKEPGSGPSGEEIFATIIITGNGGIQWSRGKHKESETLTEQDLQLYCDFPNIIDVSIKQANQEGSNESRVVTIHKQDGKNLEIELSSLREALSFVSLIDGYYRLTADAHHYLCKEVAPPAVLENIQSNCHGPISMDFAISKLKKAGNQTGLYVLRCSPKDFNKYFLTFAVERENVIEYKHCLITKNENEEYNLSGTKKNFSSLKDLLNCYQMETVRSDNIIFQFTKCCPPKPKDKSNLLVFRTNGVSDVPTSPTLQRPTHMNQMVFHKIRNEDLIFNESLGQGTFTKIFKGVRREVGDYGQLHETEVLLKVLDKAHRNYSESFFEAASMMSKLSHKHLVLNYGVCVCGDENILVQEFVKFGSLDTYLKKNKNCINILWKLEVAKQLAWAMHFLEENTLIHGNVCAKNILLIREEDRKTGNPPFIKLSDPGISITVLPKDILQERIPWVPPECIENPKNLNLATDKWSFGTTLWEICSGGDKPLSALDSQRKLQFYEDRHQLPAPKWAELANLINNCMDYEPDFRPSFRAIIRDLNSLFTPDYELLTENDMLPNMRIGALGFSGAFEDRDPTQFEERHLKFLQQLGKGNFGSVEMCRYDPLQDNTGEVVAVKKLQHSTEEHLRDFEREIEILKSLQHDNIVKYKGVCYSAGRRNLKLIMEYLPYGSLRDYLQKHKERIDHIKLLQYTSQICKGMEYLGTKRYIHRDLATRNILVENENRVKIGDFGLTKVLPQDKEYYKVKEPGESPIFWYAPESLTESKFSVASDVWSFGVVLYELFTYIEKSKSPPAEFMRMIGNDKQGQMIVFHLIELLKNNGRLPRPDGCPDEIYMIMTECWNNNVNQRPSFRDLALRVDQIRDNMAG

Consider `C[C@@H]1CCN(C(=O)CC#N)C[C@@H]1N(C)c1ncnc2[nH]ccc12` [CP-690,550], for which, in the assay with organ transplantation, the “efficacy in an animal model of organ transplantation” value is given as “show efficacy”.
In the case of `COc1ccc(Nc2nc(Nc3cc(-n4cnnc4)ccc3OC)ncc2Cl)c(NS(C)(=O)=O)c1` [Example 11, N-(2-(5-chloro-2-(2-methoxy-5-(4H-1,2,4-triazol-4-yl)phenylamino)pyrimidin-4-ylamino)-5-methoxyphenyl)methanesulfonamide], the half-maximal inhibitory concentration (IC50) against JAK2 is 1000 to 10000 nM; at JAK3 it was below 100 nM.
The matching figures for `COc1ccc(Nc2nc(Nc3cc(-n4cnnn4)ccc3C)ncc2Cl)c(NS(C)(=O)=O)c1` [Example 12, N-(2-(5-chloro-2-(2-methyl-5-(1H-tetrazol-1-yl)phenylamino)pyrimidin-4-ylamino)-5-methoxyphenyl)methanesulfonamide]: 1000 to 10000 nM and below 100 nM.
The matching figures for `COc1ccc(Nc2nc(Nc3cc(-n4cnnc4)ccc3C)ncc2Cl)c(NS(C)(=O)=O)c1` [Example 13, N-(2-(5-chloro-2-(2-methyl-5-(4H-1,2,4-triazol-4-yl)phenylamino)pyrimidin-4-ylamino)-5-methoxyphenyl)methanesulfonamide]: 100 to 1000 nM and below 100 nM.
The matching figures for `Cc1ccc(C#N)cc1Nc1ncc(Cl)c(Nc2ccccc2NS(C)(=O)=O)n1` [Example 14, N-(2-(5-chloro-2-(5-cyano-2-methylphenylamino)pyrimidin-4-ylamino)phenyl)methanesulfonamide]: 1000 to 10000 nM and 100 to 1000 nM.
Regarding `CNC(=O)c1ccc(Cl)c(Nc2ncc(Cl)c(Nc3ccccc3NS(C)(=O)=O)n2)c1` [Example 16, 4-Chloro-3-(5-chloro-4-(2-(methylsulfonamido)phenylamino)pyrimidin-2-ylamino)-N-methylbenzamide], the results for the IC50 against JAK2 and against JAK3 were at least 10000 nM and 100 to 1000 nM, respectively.
As to `CNC(=O)c1ccc(OC)c(Nc2ncc(Cl)c(Nc3ccccc3NS(C)(=O)=O)n2)c1` [Example 17, 3-(5-chloro-4-(2-(methylsulfonamido)phenylamino)pyrimidin-2-ylamino)-4-methoxy-N-methylbenzamide], the IC50 was at least 10000 nM on JAK2 and below 100 nM against JAK3.
`COc1ccc(C(=O)NC(C)C)cc1Nc1ncc(Cl)c(Nc2ccccc2NS(C)(=O)=O)n1` [Example 18] had an IC50 on JAK3 below 100 nM.
With `COc1ccc(C(=O)N2CCCCC2)cc1Nc1ncc(Cl)c(Nc2ccccc2NS(C)(=O)=O)n1` [Example 19, N-(2-(5-chloro-2-(2-methoxy-5-(piperidine-1-carbonyl)phenylamino)pyrimidin-4-ylamino)phenyl)methanesulfonamide], the figures for the IC50 on JAK2 and against JAK3 were at least 10000 nM and 100 to 1000 nM, respectively.
Take `COc1ccc(C(=O)NC2CC2)cc1Nc1ncc(Cl)c(Nc2ccccc2NS(C)(=O)=O)n1` [Example 20]: the half-maximal inhibitory concentration (IC50) at JAK3 is below 100 nM.
Consider `CCNC(=O)c1ccc(OC)c(Nc2ncc(Cl)c(Nc3ccccc3NS(C)(=O)=O)n2)c1` [Example 21], for which the IC50 on JAK3 is below 100 nM.
For the compound `Cc1ccc(C#N)cc1Nc1ncc(Cl)c(Nc2cccc(F)c2NS(C)(=O)=O)n1` [Example 23, N-(2-(5-chloro-2-(5-cyano-2-methylphenylamino)pyrimidin-4-ylamino)-6-fluorophenyl)methanesulfonamide], the IC50 against JAK2 is at least 10000 nM; against JAK3, 1000 to 10000 nM.
In the case of `Cc1ccc(C(=O)N(C)C)cc1Nc1ncc(Cl)c(Nc2ccccc2NS(C)(=O)=O)n1` [Example 24, 3-(5-chloro-4-(2-(methylsulfonamido)phenylamino)pyrimidin-2-ylamino)-N,N,4-trimethylbenzamide], the IC50 against JAK2 is at least 10000 nM; against JAK3, 100 to 1000 nM.
As for `CCS(=O)(=O)Nc1ccccc1Nc1nc(Nc2cc(C#N)ccc2OC)ncc1Cl` [Example 25, N-(2-(5-chloro-2-(5-cyano-2-methoxyphenylamino)pyrimidin-4-ylamino)phenyl)ethanesulfonamide], the figures for the 50% inhibitory concentration (IC50) on JAK2 and against JAK3 were at least 10000 nM and 100 to 1000 nM, respectively.
In the case of `CCNC(=O)c1ccc(OC)c(Nc2ncc(Cl)c(Nc3ccccc3NS(=O)(=O)CC)n2)c1` [Example 26, 3-(5-chloro-4-(2-(ethylsulfonamido)phenylamino)pyrimidin-2-ylamino)-N-ethyl-4-methoxybenzamide], the IC50 against JAK2 was at least 10000 nM; on JAK3, 100 to 1000 nM.
For the compound `CCS(=O)(=O)Nc1ccccc1Nc1nc(Nc2cc(C(=O)NC)ccc2OC)ncc1Cl` [Example 27, 3-(5-chloro-4-(2-(ethylsulfonamido)phenylamino)pyrimidin-2-ylamino)-4-methoxy-N-methylbenzamide], the IC50 was at least 10000 nM at JAK2 and 100 to 1000 nM against JAK3.
On to `COc1cc2ncnc(Nc3ccc(O)cc3)c2cc1OC` [JANEX-1], for which the “prevention of spontaneous autoimmune diabetes development” value in assay [1] was “prevent spontaneous autoimmune diabetes development”. Also, in the assay on GVHD, the “severity of GVHD” value was “attenuate the severity of GVHD”.

As a reminder, the IC50 is the concentration that gives 50% inhibition. High values mean a need for much substance, low ones inhibition by little substance.
